Laboratory results published in publication PMC3495596 (Journal of medicinal chemistry, 2012).

Key:
thermolysin [1] = target: T1, thermolysin (Bacillus thermoproteolyticus, UniProt P00800); format: biochemical; settings: free energy of binding corresponding to Ki
thermolysin [2] = target: T1, thermolysin; format: binding

T1 sequence (P00800 233-548): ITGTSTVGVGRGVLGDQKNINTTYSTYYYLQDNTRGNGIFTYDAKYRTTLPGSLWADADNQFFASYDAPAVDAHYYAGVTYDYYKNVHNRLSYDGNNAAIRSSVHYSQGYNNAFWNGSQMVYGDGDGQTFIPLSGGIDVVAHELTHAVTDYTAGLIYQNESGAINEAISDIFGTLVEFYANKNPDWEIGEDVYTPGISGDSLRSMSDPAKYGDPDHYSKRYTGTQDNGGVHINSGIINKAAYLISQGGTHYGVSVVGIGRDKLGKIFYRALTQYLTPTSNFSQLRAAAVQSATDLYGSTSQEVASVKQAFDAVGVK

Row | Structure (SMILES) | ΔGKi (thermolysin [1]) | ΔΔH (thermolysin [2])
1 | CC(C)C[C@H](NP(=O)([O-])CNC(=O)OCc1ccccc1)C(=O)N[C@@H](C)C(=O)[O-].[Li+].[Li+] [Compound 8b, N-(N-(N-(benzyloxycarbonyl)-aminomethylphosphonyl)-L-leucinyl)-alaninate di-Lithium] | -10.5 kcal/mol | -3.18 kcal/mol
2 | CCNC(=O)[C@H](CC(C)C)NP(=O)([O-])CNC(=O)OCc1ccccc1.[Li+] [Compound 8d, N-(N-(benzyloxycarbonyl)-aminomethylphosphonyl)-N′-ethyl-L-leucinamide lithium] | -8.91 kcal/mol | 
3 | CNC(=O)[C@H](CC(C)C)NP(=O)([O-])CNC(=O)OCc1ccccc1.[Li+] [Compound 8c, N-(N-(benzyloxycarbonyl)-aminomethylphosphonyl)-N′-methyl-L-leucinamide lithium] | -8.25 kcal/mol | 
4 | CC(C)C[C@H](NP(=O)([O-])CNC(=O)OCc1ccccc1)C(=O)NCC(=O)[O-].[Li+].[Li+] [Compound 8a, N-(N-(N-(benzyloxycarbonyl)-aminomethylphosphonyl)-L-leucinyl)-glycinate di-lithium] | -8.63 kcal/mol | 
